The values that follow come from ChEMBL document CHEMBL1275255, “Role of Fks1p and matrix glucan in Candida albicans biofilm resistance to an echinocandin, pyrimidine, and polyene” (2010).

Holding throughout (assay type): functional
Assay [1] has as its system Candida albicans. The experiment in a line: Antifungal activity against Candida albicans assessed as decrease in biofilm formation at 0.25 ug/ml. Set-up: scale not given: the % may be the effect or the level left.
The subject of assay [2] is Candida albicans. The experiment in a line: Antifungal activity against […] gene deficient Candida albicans assessed as decrease in biofilm formation at 0.25 ug/ml. More on the design: scale not given: the % may be the effect or the level left.
Assay [3] deals with Candida albicans. The experiment in a line: Antifungal activity against Candida albicans grown as planktonic cell after 24 hrs by XTT reduction assay.
For assay [4], the system named is Candida albicans. Kind of assay: Antifungal activity against […] gene deficient Candida albicans.
Assay [5] relates to Candida albicans. Kind of assay: Antifungal activity against Candida albicans TDH3 overexpressing FKS1 gene.

In brackets after ≈: the same amount, converted by molar mass. Starred links: 1 amine or outer side, 2 acyl side, 3 side chain; linkers in the order of their positions; H or OH if unused. Positions of bridges follow the written chain, without caps; N, C: chain ends. Non-standard residues stand in square brackets, D forms with d. Residues, ends and D or L forms follow the SMILES beside them. *: point of attachment. pTerphenylCO(4''-OnC5H11) = CCCCCOc1ccc(-c2ccc(-c3ccc(C(=O)*)cc3)cc2)cc1; Orn(4R-OH,5R-OH) = O=C([C@H](C[C@@H](O)[C@@H](O)N[*:3])N[*:1])[*:2]; hTyr(3S-OH,4S-OH) = N[C@H](C(=O)O)[C@H](O)[C@@H](O)c1ccc(O)cc1; Pro(3S-OH,4S-Me) = C[C@H]1CN[C@H](C(=O)O)[C@H]1O; Hyp = O=C(O)[C@@H]1C[C@@H](O)CN1

As to `C[C@@H]1[C@H](O)[C@@H](C)/C=C/C=C/C=C/C=C/C=C/C=C/C=C/[C@H](O[C@@H]2O[C@H](C)[C@@H](O)[C@H](N)[C@@H]2O)C[C@@H]2O[C@](O)(C[C@@H](O)C[C@@H](O)[C@H](O)CC[C@@H](O)C[C@@H](O)CC(=O)O[C@H]1C)C[C@H](O)[C@H]2C(=O)O` [AMPHOTERICIN B], the Activity in the assay with Candida albicans [1] came out at 60%; in the assay on Candida albicans [2], 80%.

By MIC is commonly meant the lowest concentration found to suppress growth. As for `CCCCCOc1ccc(-c2ccc(-c3ccc(C(=O)N[C@H]4C[C@@H](O)[C@@H](O)NC(=O)[C@@H]5[C@@H](O)[C@@H](C)CN5C(=O)[C@H]([C@@H](C)O)NC(=O)[C@H]([C@H](O)[C@@H](O)c5ccc(O)cc5)NC(=O)[C@@H]5C[C@@H](O)CN5C(=O)[C@H]([C@@H](C)O)NC4=O)cc3)cc2)cc1` [ANIDULAFUNGIN] ({pTerphenylCO(4''-OnC5H11)}-[Orn(4R-OH,5R-OH)]T[Hyp][hTyr(3S-OH,4S-OH)]T[Pro(3S-OH,4S-Me)]; lactam 1-C), the MIC in the assay on Candida albicans [3], against Candida albicans [4] and in the assay with Candida albicans [5] was 0.01 µg/mL (≈ 0.00877 µM) throughout.

Turning to `Nc1nc(=O)[nH]cc1F` [FLUCYTOSINE], the MIC in the assay on Candida albicans [3], against Candida albicans [4] and in the assay on Candida albicans [5] was 0.03 µg/mL (≈ 0.232 µM) in each case.
